Series [1] in a line: Normal cell cytotoxicity in PBMCs, CellTiter-Glo. The class given is cell-based. To be noted: human, read-out: In vitro cell cytotoxicity in PBMCs CC50. How it is done: PBMCs were also purchased from […]™ (#700025.2). The cells (8.0×10^4 cells per well) were seeded in a flat-bottomed 96-well plate in RPMI 1640 medium (Gibco, #22400097) with 10% heat-inactivated FBS and 1× Antibiotic-Antimycotic (Gibco, #15240062) and rested for 24 hours at 37° C. […] After 72 hours, the cell viability was measured using CellTiter-Glo Luminescent Cell Viability Assay (Promega, #G7573) according to the manufacture's instruction. The signal was detected using an EnVision Xcite multilabel reader and data were analyzed using GraphPad Prism 8 software.
To verify the effect of the STING agonist compounds in normal cell cytotoxicity, the PBMCs were treated with the STING agonist compounds for 3 days and measured the percentage of cell death.
For orientation: ATP-based viability assays read luminescence as a measure of living cells.

Series [2] can be described thus: Plasma pharmacokinetics in naive Balb/C mouse, LC-MS/MS. The class given is in vivo. To be noted: 1.5 mg/kg single IV; for AUC∞, norm / Cmax, norm: n = 3, dose-normalised; for AUC(0-inf) / AUC(0-t) / C0 / Cmax / clearance / half-life / Vd: female; for AUC(0-inf) / AUC(0-t) / C0 / Cmax: n = 3, plasma; for clearance / half-life / Vd: plasma; for clearance / half-life: n = 3; for Vd: n = 3, read-out: VSS. The protocol: For in vivo evaluation of STING agonist compounds described herein in naïve Balb/C mouse, single doses of STING agonist compounds were given at 1.5 mg/kg intravenously into female BALB/c mice (Orientbio, South Korea) at 6-8 weeks of age. Pharmacokinetics were studied following injection of the STING agonist compounds into Balb/C mice. Plasma samples were taken at various time points and stored frozen for analysis. The plasma concentrations of the STING agonist compounds at the indicated time points were measured using a LC-MS/MS analysis method.
Briefly, 250 μL of acetonitrile (ACN) solution was added in both 50 μL of sample and 50 μL of plasma containing 10 nM Dextromethorphan (internal standard), and the solutions were mixed vigorously using a vortex mixer for 5 minutes. The samples were then spun down at 14,000 rpm, 4° C. for 5 minutes. 100 μL of supernatants were combined with 100 μL of mobile phase A (0.1% formic acid in water with 5% ACN) and mixed thoroughly. The samples were measured for the STING agonist compounds using a LC-MS/MS (Nexera LC40 (SHIMADZU) and QTRAP4500 (SCIEX)).

The target of series [3] is T1, human STING (Homo sapiens, UniProt Q86WV6, H232R).
T1 construct: purchased Cisbio 64BDSTGPEG
T1 sequence (Q86WV6 whole entry H232R): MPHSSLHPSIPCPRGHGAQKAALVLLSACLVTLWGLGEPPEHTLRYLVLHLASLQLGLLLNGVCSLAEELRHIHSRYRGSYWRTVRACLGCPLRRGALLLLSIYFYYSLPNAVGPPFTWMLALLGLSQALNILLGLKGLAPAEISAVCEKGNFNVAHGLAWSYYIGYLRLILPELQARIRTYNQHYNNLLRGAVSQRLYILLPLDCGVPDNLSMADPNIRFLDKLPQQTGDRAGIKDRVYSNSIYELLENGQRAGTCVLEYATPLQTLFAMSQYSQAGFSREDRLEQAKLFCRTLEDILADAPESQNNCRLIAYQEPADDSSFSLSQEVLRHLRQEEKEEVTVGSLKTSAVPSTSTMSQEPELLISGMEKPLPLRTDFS
The series is described as follows: Direct STING binding, HUMAN STING WT BINDING KIT (Cisbio). The settings on record: direct binding to human STING WT protein in vitro; read-out: Binding potency EC50. The source says:
Additionally, for analysis of direct binding potency of STING agonist compounds described herein to human STING, HUMAN STING WT BINDING KIT (Cisbio, #64BDSTGPEG) was used according to the manufacture's instruction.

Series [4] has as its target T2, hSTING-WT (R232) (Homo sapiens, UniProt Q86WV6, H232R).
T2 construct: host or cells: THP1-Dual cells (human monocytes) with knocked-in hSTING R232
The series is described as follows: STING activation, THP1-Dual IRF3 reporter assay, hSTING-R232 cells. The class given is cell-based. The settings on record: IRF3 luciferase reporter, 24 hours, read-out: STING activity using hSTING-R232 cells EC50. How it is done:
(§1) To assess potency of STING agonist compounds described herein, THP1-Dual™ Cells (NF—KB-SEAP and IRF-Lucia luciferase reporter monocytes, InvivoGen) were used. The reporter cells were knocked-in either of hSTING-WT (R232, #thpd-r232), HAQ variant (#thpd-nfis), or H232 variant (#thpd-h232). All cells were cultured at 37° C. in a humidified incubator at 5% CO2 and maintained in RPMI 1640 medium (Gibco, #22400097) supplemented with 10% heat-inactivated FBS and 1×Pen-Strep (Gibco, #15140122). To measure STING agonist-mediated IRF3 activity, the cells (9.0×10^4 cells per well) were seeded in a flat-bottomed 96-well plate. The next day, the cells were treated with compounds in a serial dilution for 24 hours. Subsequently, 20 μL of the cell culture supernatant and 50 μL of the QUANTI-Luc™ reagent (InvivoGen, #rep-qlc) were mixed in a 96-well white plate and then, luciferase activity was measured using an EnVision Xcite multilabel reader. The data were analyzed using Prism8 software (4-parameter).
(§2) The potency of STING agonist compounds was evaluated by the activation of Type I Interferon pathway using THP-1 IRF3 reporter assay.
In general terms: In a reporter assay the amount or activity of a reporter protein is the signal.

The target in series [5] is T3, hSTING H232 variant (Homo sapiens, UniProt Q86WV6).
T3 construct: host or cells: THP1-Dual cells (human monocytes) with knocked-in hSTING H232
Nature of the series: STING activation, THP1-Dual IRF3 reporter assay, hSTING-H232 cells. The class given is cell-based. The settings on record: IRF3 luciferase reporter, 24 hours, read-out: STING activity using hSTING-H232 cells, H232 EC50. The protocol:
as §1, §2

The target of series [6] is T4, hSTING HAQ variant (Homo sapiens, UniProt Q86WV6, G230A/H232R/R293Q/R71H).
T4 construct: host or cells: THP1-Dual cells (human monocytes)
T4 sequence (Q86WV6 whole entry R71H/G230A/H232R/R293Q): as the sequence (Q86WV6 whole entry H232R) above, with R71H, G230A, R293Q counted along it
Nature of the series: STING activation, THP1-Dual IRF3 reporter assay, hSTING-HAQ cells. The class given is cell-based. The settings on record: IRF3 luciferase reporter, 24 hours, read-out: STING activity using hSTING-HAQ cells, HAQ EC50. How it is done: as §1, §2

T2 sequence (Q86WV6 whole entry H232R): as the sequence (Q86WV6 whole entry H232R) above

Broadly, the CC50 is the concentration that lowers cell viability or growth by half. A word on the AUC(0-inf): it is total exposure, with the tail of the curve extrapolated. By AUC(0-t) is commonly meant the area under the concentration-time curve up to a stated or last time point. Lower therefore signals low exposure. Usually Cmax stands for the maximum level reached in the sampled fluid or tissue. One may read the clearance as the rate of elimination divided by the concentration. Low values mean inefficient removal, high ones efficient removal. A word on the half-life: it is the time in which the quantity being followed falls by half. High values mean slow decline, low ones rapid decline. The EC50 is the concentration at which the effect is half-maximal. On to `CCc1nc(C)oc1C(=O)Nc1nc2cc(C(N)=O)cnc2n1C/C=C/Cn1c(NC(=O)c2oc(C)nc2CC)nc2cc(C(N)=O)cc(OCCCO)c21` [Comparative #2, reference compound], for which the CC50 at 72 h in series [1] was found to be 6.28 nM. In series [2], the “AUC∞, norm” value was found to be 0.05 ± 0.01 kg·h/L; the “Cmax, norm” value was determined as 0.16 ± 0.02 kg/L; the AUC(0-inf) stood at 80 ± 10 ng·h/mL; the AUC(0-t) worked out at 70 ± 10 ng·h/mL. In series [2], this compound showed a C0 of 380 ± 50 ng/mL, a Cmax of 240 ± 30 ng/mL, a clearance of 328 mL/min/kg and a half-life of 0.2 ± 0.03 h. Also, in series [2], the Vd was found to be 5.1 ± 1.01 L/kg. The EC50 in series [3] worked out at 0.13 nM. Moreover, in series [4], the EC50 was 213 nM. In addition, in series [5], the EC50 worked out at 36.6 nM. The EC50 in series [6] is 213 nM.
`CCn1nc(C)cc1C(=O)Nc1nc2cc(C(N)=O)cc(OC)c2n1C/C=C/Cn1c(NC(=O)c2cc(C)nn2CC)nc2cc(C(N)=O)cc(OC/C=C/Cn3cc(NC(=O)OCc4ccc(O[C@@H]5O[C@H](C(=O)O)[C@@H](O)[C@H](O)[C@H]5O)c(C(=O)NCCC(=O)O)c4)cn3)c21` [Compound 281]: in series [1], the CC50 at 72 h came to 127 nM. In series [2], the “AUC∞, norm” value came to 9.89 ± 0.90 kg·h/L; the “Cmax, norm” value stood at 4.11 ± 0.28 kg/L; the AUC(0-inf) came out at 14800 ± 1340 ng·h/mL; the AUC(0-t) worked out at 14800 ± 1350 ng·h/mL. In series [2], the C0 came to 6500 ± 490 ng/mL, the peak level (Cmax) was 6160 ± 420 ng/mL, the clearance is 1.67 mL/min/kg and the half-life is 2.8 ± 0.27 h. For the same compound, the Vd in series [2] amounted to 0.32 ± 0.03 L/kg. Moreover, the EC50 in series [4] came to 39.2 nM. In addition, the EC50 in series [5] is 96.7 nM. Also, in series [6], the half-maximal effective concentration (EC50) worked out at 108 nM.
On to `CCn1nc(C)cc1C(=O)Nc1nc2cc(C(N)=O)cc(OC)c2n1C/C=C/Cn1c(NC(=O)c2cc(C)nn2CC)nc2cc(C(N)=O)cc(OC/C=C/CN3CCN(C(=O)OCc4ccc(O[C@@H]5O[C@H](C(=O)O)[C@@H](O)[C@H](O)[C@H]5O)c(C(=O)NCCOCCOCCN(C)C)c4)CC3=O)c21` [Compound 309], for which the CC50 at 72 h in series [1] is 44.3 nM. Also, the EC50 was 0.4 nM in series [3], 31.2 nM in series [4], 70.4 nM in series [5] and 52 nM in series [6].
Consider `CCn1nc(C)cc1C(=O)Nc1nc2cc(C(N)=O)cc(OC/C=C/Cn3cc(NC(=O)OCc4ccc(O[C@@H]5O[C@H](C(=O)O)[C@@H](O)[C@H](O)[C@H]5O)c(C(=O)NCCOCCOCCO)c4)cn3)c2n1C/C=C/Cn1c(NC(=O)c2cc(C)nn2CC)nc2cc(C(N)=O)cc(OCCCC(=O)O)c21` [Compound 316], for which, in series [1], the CC50 at 72 h stood at 207 nM. The values for the EC50 in series [4], in series [5] and in series [6] were 88.2 nM, 251 nM and 400 nM, respectively.
Regarding `CCn1nc(C)cc1C(=O)Nc1nc2cc(C(N)=O)cc(OC/C=C/Cn3cc(NC(=O)OCc4ccc(O[C@@H]5O[C@H](C(=O)O)[C@@H](O)[C@H](O)[C@H]5O)c(C(=O)NCCOCCOCCN(C)C)c4)cn3)c2n1C/C=C/Cn1c(NC(=O)c2cc(C)nn2CC)nc2cc(C(N)=O)cc(OC/C=C/Cn3cc(NC(=O)OCc4ccc(O[C@@H]5O[C@H](C(=O)O)[C@@H](O)[C@H](O)[C@H]5O)c(C(=O)NCCOCCOCCN(C)C)c4)cn3)c21` [Compound 359], the EC50 came out at 0.17 nM in series [3] and 463 nM in series [4].

These data come from patent publication US20260167659A1, “STING AGONISTS” (LIGACHEM BIOSCIENCES INC., priority 2022, published 2026).
